The source of these data is article PMC8427641 (ACS Omega, 2021).

The test concerns the target T1, α-amylase (Homo sapiens, UniProt P04746).
T1 sequence (P04746 16-511): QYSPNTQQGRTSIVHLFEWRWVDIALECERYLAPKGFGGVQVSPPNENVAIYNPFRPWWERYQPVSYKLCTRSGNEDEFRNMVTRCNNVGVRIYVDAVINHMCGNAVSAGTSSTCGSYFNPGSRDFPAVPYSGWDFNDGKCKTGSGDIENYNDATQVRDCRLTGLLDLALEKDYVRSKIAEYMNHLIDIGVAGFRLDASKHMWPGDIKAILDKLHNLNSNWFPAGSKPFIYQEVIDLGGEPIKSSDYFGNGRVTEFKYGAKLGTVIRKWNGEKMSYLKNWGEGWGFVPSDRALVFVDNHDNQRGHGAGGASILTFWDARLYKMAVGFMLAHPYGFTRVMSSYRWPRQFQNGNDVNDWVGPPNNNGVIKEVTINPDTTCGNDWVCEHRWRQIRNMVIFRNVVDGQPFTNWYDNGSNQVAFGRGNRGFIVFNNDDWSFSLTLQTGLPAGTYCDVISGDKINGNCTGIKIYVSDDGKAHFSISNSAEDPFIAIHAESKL
As to the kind of experiment: α-Amylase inhibition assay. Format: biochemical.
In general, IC50 refers to the concentration at which inhibition is half-maximal. A low value points to inhibition by little substance. On to `COc1cc(-c2nc3cc(Cl)ccc3[nH]2)ccc1OCc1ccccc1` [Compound 24, 5-Chloro-2-(4^′-(benzyloxy)-3^′-methoxyphenyl)-1H-benzo[d]imidazole], for which the IC50 worked out at 2.16 ± 0.02 µM. The value for `Cc1cc2nc(-c3ccc(OCc4ccccc4)cc3)[nH]c2cc1C` [Compound 30, 5,6-Dimethyl-2-(4^′-(benzyloxy)phenyl)-1H-benzo[d]imidazole] was 2.16 ± 0.07 µM. The value for `Clc1ccc2[nH]c(-c3cccc(OCc4ccccc4)c3)nc2c1` [Compound 29, 5-Chloro-2-(3^′-(benzyloxy)phenyl)-1H-benzo[d]imidazole] was 2.47 ± 0.11 µM. The value for `Fc1ccc2[nH]c(-c3ccc(OCc4ccccc4)cc3)nc2c1` [Compound 31, 5-Fluoro-2-(4^′-(benzyloxy)phenyl)-1H-benzo[d]imidazole] was 2.15 ± 0.06 µM.
